Article PMC4823711, “Allosteric Partial Inhibition of Monomeric Proteases. Sulfated Coumarins Induce Regulation, not just Inhibition, of Thrombin” (Scientific Reports, 2016)
Entries after “also recorded” stand apart in the source; their conditions may differ.

Legend:
thrombin [1] = target: thrombin (Homo sapiens, UniProt P00734); assay: Chromogenic substrate hydrolysis assay, thrombin inhibition (Spectrozyme TH); type: biochemical; design: 6 nM plasma α-thrombin; purchased Haematologic Technologies (Essex Junction, VT); conditions: for thrombin inhibition (in words): up to 250 μM; for efficacy of thrombin inhibition (ΔY) / IC50: pH 7.4, 25 °C; for efficacy of thrombin inhibition (ΔY): at saturation; for IC50: read-out: IC50 against thrombin
Experimental: Chromogenic substrate hydrolysis assay was used to measure potency of inhibition, as previously reported. The assay was performed using Flexstation III (Molecular Devices, Sunnyvale, CA) by monitoring substrate hydrolysis at 405 nm. For thrombin and its mutants, 180 μL of buffer (20 mM Tris-HCl, 100 mM NaCl, 2.5 mM CaCl2, 0.1% (polyethylene glycol) PEG 8000, pH 7.4) was added to each well followed by 5 μL of 240 nM thrombin and 10 μL of sulfated coumarin in DMSO to give 0.002 to 250 μM final concentration (or 10 μL of DMSO alone). After incubation for 10 min at 25 °C, 5 μL of 2 mM Spectrozyme TH was added to each well simultaneously and allowed to react for 60 seconds at 25 °C while simultaneously monitoring the reaction to obtain the rate of increase in A405. Identical experimental conditions were used for reactions in the presence of antithrombin, except for 100 nM of antithrombin added prior to the addition of the substrate.
For factor XIa inhibition studies, 85 μL of buffer (50 mM Tris-HCl, 150 mM NaCl, 0.1% PEG 8000, 0.02% Tween 80, pH 7.4) was added to each well, followed by 7 μL of 15.3 nM enzyme and 3 μL of sulfated coumarin (3.75–500 μM final concentration) and incubated for 10 min at 37 °C. After the incubation period, 5 μL of 6.9 mM S-2366 was added to each well simultaneously and allowed to react for 300 sec at 37 °C. For factor Xa assay, 180 μL of buffer (20 mM Tris-HCl, 100 mM NaCl, 2.5 mM CaCl2, 0.1% PEG 8000, 0.02% Tween 80, pH 7.4) was added to each well followed by 5 μL of 43.5 nM enzyme, 10 μL of sulfated coumarin (0.002–250 μM final concentration). After a 10 min incubation, 5 μL of 5 mM Spectrozyme FXa was added to each well simultaneously and allowed to react for 300 seconds at 37 °C. The slopes generated from each experiment were used to calculate the fractional residual activity (Y) at each concentration of the inhibitor, and analyzed using logistic equation 1, in which YM is the maximum efficacy, Y0 is minimum efficacy and HS is the Hill slope.

thrombin [2] = conditions: cited from earlier work; for efficacy of thrombin inhibition (ΔY): orthosteric inhibitors
thrombin [3] = target: thrombin; design: method as in PMID 2007587; conditions: read-out: affinity for thrombin; cited from earlier work

## O=c1oc2cc(OS(=O)(=O)O)ccc2c(-c2ccccc2)c1-c1ccccc1Cl [2d]
Thrombin [1]
  thrombin inhibition (in words): not all 4-aryl derivatives were active

## O=c1oc2cc(OS(=O)(=O)O)ccc2c(-c2ccccc2)c1-c1cccc(Cl)c1 [2e]
Thrombin [1]
  thrombin inhibition (in words): active

## O=c1oc2cc(OS(=O)(=O)O)ccc2c(-c2ccccc2)c1-c1ccc(Cl)cc1Cl [2k]
Thrombin [1]
  thrombin inhibition (in words): active

## O=c1oc2ccc(OS(=O)(=O)O)cc2c(-c2ccccc2)c1-c1ccc(Cl)cc1 [2l]
Thrombin [1]
  thrombin inhibition (in words): not all 4-aryl derivatives were active

## O=c1oc2cc(OS(=O)(=O)O)ccc2c(-c2ccccc2)c1-c1ccc(Br)cc1 [2o]
Thrombin [1]
  thrombin inhibition (in words): not all 4-aryl derivatives were active

## O=c1oc2cc(OS(=O)(=O)O)ccc2c(Cc2ccc(Cl)cc2)c1-c1ccccc1 [2p]
Thrombin [1]
  thrombin inhibition (in words): active

## O=c1oc2cc(OS(=O)(=O)O)ccc2c(-c2ccccc2)c1-c1ccc(O)c(OS(=O)(=O)O)c1 [2w]
Thrombin [1]
  thrombin inhibition (in words): not all 4-aryl derivatives were active

## O=c1oc2c(Cl)cc(Cl)cc2c(-c2ccccc2)c1-c1ccc(OS(=O)(=O)O)cc1 [2x]
Thrombin [1]
  thrombin inhibition (in words): not all 4-aryl derivatives were active

## O=c1oc2cc(OS(=O)(=O)O)ccc2c(-c2ccccc2)c1-c1ccc(OS(=O)(=O)O)cc1 [2y]
Thrombin [1]
  thrombin inhibition (in words): not all 4-aryl derivatives were active; also recorded: complete absence of inhibition potential

## O=c1oc2cc(OCCCn3cc(COc4ccc5c(-c6ccccc6)c(-c6ccc(OS(=O)(=O)O)cc6)c(=O)oc5c4)nn3)ccc2c(-c2ccccc2)c1-c1ccc(OS(=O)(=O)O)cc1 [3a]
Thrombin [1]
  efficacy of thrombin inhibition (ΔY): 73%
  IC50: ≤ 1 µM

## O=c1oc2cc(OCCCCn3cc(COc4ccc5c(-c6ccccc6)c(-c6ccc(OS(=O)(=O)O)cc6)c(=O)oc5c4)nn3)ccc2c(-c2ccccc2)c1-c1ccc(OS(=O)(=O)O)cc1 [3b]
Thrombin [1]
  efficacy of thrombin inhibition (ΔY): 58%
  IC50: ≤ 1 µM

## O=c1oc2cc(OCCCn3cc(COc4ccc5cc(-c6ccc(OS(=O)(=O)O)cc6)c(=O)oc5c4)nn3)ccc2cc1-c1ccc(OS(=O)(=O)O)cc1 [3c]
Thrombin [1]
  efficacy of thrombin inhibition (ΔY): 60%

## CC1CNc2c(cccc2S(=O)(=O)N[C@@H](CCCNC(=N)N)C(=O)N2CC[C@@H](C)C[C@@H]2C(=O)O)C1 (stereo partly shown) [argatroban]
Thrombin [2]
  efficacy of thrombin inhibition (ΔY): 100%

## [H]/N=C(/N)c1ccc(NCc2nc3cc(C(=O)N(CCC(=O)O)c4ccccn4)ccc3n2C)cc1 [dabigatran]
Thrombin [2]
  efficacy of thrombin inhibition (ΔY): 100%

## Cc1ccc(C(=O)Nc2ccc(S(=O)(=O)O)c3cc(S(=O)(=O)O)cc(S(=O)(=O)O)c23)cc1NC(=O)c1cccc(NC(=O)Nc2cccc(C(=O)Nc3cc(C(=O)Nc4ccc(S(=O)(=O)O)c5cc(S(=O)(=O)O)cc(S(=O)(=O)O)c45)ccc3C)c2)c1 [suramin]
Thrombin [2]; read-out: IC50 of thrombin inhibition
  IC50: 20 to 40 µM

## Heparin hexasaccharide
Thrombin [2]
  thrombin inhibition (in words): not an inhibitor
Thrombin [3]
  Kd: ~8 µM
